# “Also recorded” adds a separate entry of the source. Where two headings read alike, the source gives them in different places.
# What was measured:
# [1] = tested on: quiescent fibroblasts (Balb/c 3T3); settings: Lozano et al. (1998), cited from earlier work
# aFGF [2] = biological target: T1, aFGF (Homo sapiens, UniProt P05230); parameters: the aFGF of 139 amino acid residues; settings: Lozano et al. (1998), cited from earlier work
# Target sequence in this assay (P05230 16-155 limits assumed): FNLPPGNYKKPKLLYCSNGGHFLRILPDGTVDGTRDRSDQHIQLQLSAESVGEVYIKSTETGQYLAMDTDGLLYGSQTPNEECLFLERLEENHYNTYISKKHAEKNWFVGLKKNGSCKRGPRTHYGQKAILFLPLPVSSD
# aFGF [3] = biological target: T1, aFGF; experiment: aFGF-induced mitogenesis inhibition test on fibroblasts in culture; assay type: cell-based; parameters: the aFGF of 139 amino acid residues; settings: for aFGF-induced mitogenic activity inhibition (in words): 60 hours, MIHS 20 μg/mL, aFGF 0.32 ng/mL; for aFGF-induced mitogenic inhibitory activity compared between compounds (stereochemical guidelines): C-9 and C-17 vs. C-14 and C-18, C-10, C-11, C-13 vs. C-9, 2-NMS vs 1-NMS series
# Target sequence in this assay (P05230 16-155 limits assumed): as above
# [4] = tested on: quiescent fibroblasts (Balb/c 3T3); experiment: toxicity analysis for quiescent fibroblasts (culture in the absence of aFGF); assay type: cell-based; settings: for toxicity for quiescent fibroblasts: within the concentration range tested / in which aFGF mitogenic activity is inhibited
# C6 glioma cells = experiment: angiogenesis and tumor growth inhibition, C6 glioma cells implanted in rat brain; assay type: in vivo, rats
# Protocol: A test similar to the one described in Example 3.1 was performed with rats, implanting the C6 glioma cells in the caudal area of the brain and the osmotic micropump in the back of the rats. A catheter led the treatment solution that contained the C-9 compound or the saline solution to the area of the glioma implant. Coronal sections of the brain of the rats thus treated were obtained and compared with coronal sections of the brain of untreated rats. The analysis was done by means of NMR spectroscopy imaging.
# glioma C6 cells = experiment: angiogenesis and tumor growth inhibition, glioma C6 cells implanted in rabbit cornea; assay type: in vivo, Albino New Zealand rabbits
# Protocol: Albino New Zealand rabbits (3±0.5 kg, male and female in equal numbers) were used and were implanted with 5 μL of a glioma C6 cell suspension [ATCC CCL-107] subepithelially injected into the cornea with a 10 μL Hamilton syringe using a surgical microscope. The injection is located at 2 mm from the limbal margin of the cornea. At the same time, an osmotic minipump was subcutaneously implanted in the neck region for the purpose of assuring continuous infusion of the compound to be tested (C-9) or of a saline solution (control). A catheter guided the solution to the sclera at a constant rate of 0.2 mg/h. It is thus calculated that a concentration of about 0.003 mg/mL of the compound to be tested or saline solution is maintained in the cornea. Treatment was maintained for 14 days. The corneas were eliminated at the end of each experiment and at fixed intervals after each treatment and processed for histological examination.
# [5] = toxicity observations in the mouse angiogenesis test; assay type: in vivo; settings: highest tested concentrations
# Protocol: (§1) Pathogen-free C57/BI/6 mice (Charles River, Spain) weighing 25±4 g were used. The animals were kept in plastic cages under controlled temperature and humidity conditions; they had water and food ad libitum and a schedule of 12 hours of daylight and darkness was maintained. The guidelines on animal welfare of the NIH and the European Union were followed meticulously.
# 10 mm long sterile gelatin sponge cubes (Curaspon Dental, Clinimed Holding, Zwanenburg, Holland) were subcutaneously implanted in the backs of the mice after inducing intraperitoneal anesthesia [Cuevas, P. et al. (1999) Neurol. Res. 21, 191-194]. The animals were distributed into 2 groups: Group A (n=10): formed by animals in which sponges loaded with 200 μL of phosphate buffered saline (PBS) containing 29 μg/mL of heparin were implanted; and Group B (n=40): formed by animals in which sponges soaked with the same solution as that of Group A but containing 10 μg/mL of aFGF were implanted. The skin was sutured after implanting the sponge in the subcutaneous bursa. The mice in Group B were randomly divided into four groups (n=10) that received 0.008, 0.08, 0.8 and 8 mg/kg of compound C-9, respectively, by means of intraperitoneal injection of 200 μL of PBS 24 hours after surgical treatment [Pesenti, E. et al. (1992) Brit. J. Cancer 66, 367-372; Cuevas, P. et al. (1999) Neurol. Res. 21, 191-194]. […]
# bFGF = bFGF (Homo sapiens, UniProt P09038); experiment: angiogenesis inhibition test in mice with aFGF substituted with bFGF; assay type: in vivo; settings: data not shown
# aFGF [6] = biological target: T1, aFGF; experiment: angiogenesis inhibition test in mice (aFGF-soaked gelatin sponge implants); assay type: in vivo
# Protocol: A standard angiogenesis test was performed with mice in order to evaluate the C-9 compound as an angiogenesis inhibitor.
# as §1
# Target sequence in this assay (P05230 whole entry, species assumed): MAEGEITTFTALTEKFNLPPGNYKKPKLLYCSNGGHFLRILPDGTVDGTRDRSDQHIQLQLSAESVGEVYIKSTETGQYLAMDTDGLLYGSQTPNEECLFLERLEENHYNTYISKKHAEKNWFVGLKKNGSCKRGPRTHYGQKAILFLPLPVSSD
# 10 mm long sterile gelatin sponge cubes (Curaspon Dental, Clinimed Holding, Zwanenburg, Holland) were subcutaneously implanted in the backs of the mice after inducing intraperitoneal anesthesia [Cuevas, P. et al. (1999) Neurol. Res. 21, 191-194]. The animals were distributed into 2 groups: Group A (n=10): formed by animals in which sponges loaded with 200 μL of phosphate buffered saline (PBS) containing 29 μg/mL of heparin were implanted; and Group B (n=40): formed by animals in which sponges soaked with the same solution as that of Group A but containing 10 μg/mL of aFGF were implanted. The skin was sutured after implanting the sponge in the subcutaneous bursa. The mice in Group B were randomly divided into four groups (n=10) that received 0.008, 0.08, 0.8 and 8 mg/kg of compound C-9, respectively, by means of intraperitoneal injection of 200 μL of PBS 24 hours after surgical treatment [Pesenti, E. et al. (1992) Brit. J. Cancer 66, 367-372; Cuevas, P. et al. (1999) Neurol. Res. 21, 191-194]. All the procedures were performed under sterile conditions.
# In order to evaluate angiogenesis, the mice were again anesthetized as previously described, and the sponges were surgically extracted, which were treated to perform histological studies by means of conventional methods [Cuevas, P. et al. (1999) Neurol. Res. 21, 191-194] 7 days after the implants. Neovascularization was quantified by means of a morphometric computer program connected to a microscope. The growth of new vessels inside the sponges was evaluated by means of the measurement of the surface area containing erythrocytes. Neovascularization was analyzed in 4 predetermined visual fields of 3 different sections at a magnification of 10. The statistical analyses were performed using Student's t-Test.
# Chain of bFGF (P09038 143-288, species assumed): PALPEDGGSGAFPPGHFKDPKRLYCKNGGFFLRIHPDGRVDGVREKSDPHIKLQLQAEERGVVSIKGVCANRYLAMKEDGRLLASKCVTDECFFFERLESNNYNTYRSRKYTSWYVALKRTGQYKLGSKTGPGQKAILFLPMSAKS
compound,measurement,setting,value
"O=S(=O)(O)c1cccc2c(S(=O)(=O)O)cccc12 [1,5-NDS, 1,5-naphthalenedisulfonic acid, reference compound]",toxicity at concentrations at which aFGF mitogenic activity is inhibited (literature),[1],clear toxicity; also recorded: toxic
same,aFGF-induced mitogenic activity inhibition (literature),aFGF [2],better aFGF mitogenic activity inhibitors than NTS; also recorded: aFGF-induced mitogenic activity inhibitors
"O=S(=O)(O)c1cccc2ccccc12 [Compound C-1, 1-naphthalenesulfonic acid]",toxicity at concentrations at which aFGF mitogenic activity is inhibited (literature),[1]; listed as 1-NMS,clear toxicity; also recorded: toxic
same,aFGF-induced mitogenic activity inhibition (in words),aFGF [3]; Balb/c 3T3 fibroblasts,aFGF-induced mitogenic activity inhibitors
same,aFGF-induced mitogenic activity inhibition (literature),aFGF [2]; listed as 1-NMS,"better aFGF mitogenic activity inhibitors than NTS; also recorded: aFGF-induced mitogenic activity inhibitors; also recorded: more potent inhibitor than 1,3,6-NTS and 1,5-NDS"
same,toxicity for quiescent fibroblasts,[4],certain toxic effect
"Nc1cccc2cc(S(=O)(=O)[O-])ccc12.[Na+] [Compound C-9, sodium 5-amino-2-naphthalenesulfonate]",tumor mass,C6 glioma cells; NMR imaging of coronal brain sections vs untreated rats,significantly decreased
same,intratumor vascularization inhibition (factor),"C6 glioma cells; rat, in vivo",six
same,apoptosis index,"glioma C6 cells; continuous infusion 0.2 mg/h, 14 days",very positive
same,corneal neovascularization area,glioma C6 cells; in comparison with the untreated animals,very reduced
same,apoptotic endothelial nuclei (microscopic observation),glioma C6 cells; treated animals,presence of apoptotic endothelial nuclei
same,broken blood vessels (microscopic observation),glioma C6 cells; treated animals,presence of broken blood vessels
same,number of apoptotic bodies (microscopic observation),glioma C6 cells; treated animals,higher number
same,number of glioma C6 cells (microscopic observation),glioma C6 cells; treated animals,lower number
same,toxic death or apparent alterations in the animals,[5],did not cause any toxic death or apparent alterations
same,weight changes,[5],nor did it cause weight changes
same,aFGF-induced mitogenic activity inhibition (in words),aFGF [3]; Balb/c 3T3 fibroblasts,potent aFGF-induced mitogenic activity inhibitors
same,aFGF-induced mitogenic inhibitory activity compared between compounds (stereochemical guidelines),aFGF [3],better aFGF-induced mitogenic activity inhibitors
same,IC50 rank among the tested compounds,aFGF [3]; aFGF-induced mitogenesis,second best IC50 value
same,IC50,"aFGF [3]; aFGF-induced mitogenesis, Balb/c 3T3 fibroblasts, read-out: inhibitory activity IC50",265 µM
same,neovascularization inhibition with bFGF instead of aFGF,bFGF,Equivalent results
same,mitogenesis inductor / tumorigenic effect on quiescent fibroblasts in the absence of aFGF,[4],does not occur
same,toxicity for quiescent fibroblasts,[4],innocuous
same,toxicity for quiescent fibroblasts,[4]; listed as sodium 5-amino-2-naphthalenesulfonate,not toxic
same,neovascularization inhibition,"aFGF [6]; 0.008 mg/kg intraperitoneal, 7 days after implants",already assessable
same,neovascularization inhibition,"aFGF [6]; 0.08 mg/kg intraperitoneal, 7 days after implants",already assessable
same,cellular infiltration in aFGF-soaked sponge implants,"aFGF [6]; 8 mg/kg intraperitoneal, FIG. 2",disappears
same,neovascularization inhibition,aFGF [6]; doses exceeding 0.8 mg/kg intraperitoneal,virtually complete
same,aFGF-induced angiogenic activity inhibition (in words),"aFGF [6]; mouse, in vivo",aFGF-induced angiogenic activity inhibitors
same,"neovascularization inhibition compared with suramines and 1,3,6-NTS","aFGF [6]; mouse, in vivo",considerably more effective neovascularization inhibitor
"CC(=O)Nc1cccc2cc(S(=O)(=O)[O-])ccc12.[Na+] [Compound C-10, sodium 5-acetylamino-2-naphthalenesulfonate]",aFGF-induced mitogenic activity inhibition (in words),aFGF [3]; Balb/c 3T3 fibroblasts,slightly less than that of C-9
same,aFGF-induced mitogenic activity inhibition (in words),"aFGF [3]; Balb/c 3T3 fibroblasts, listed as sodium 5-acetylamino-2-naphthalenesulfonate",potent aFGF-induced mitogenic activity inhibitors
same,aFGF-induced mitogenic inhibitory activity compared between compounds (stereochemical guidelines),aFGF [3],does not substantially alter the inhibitory activity
same,toxicity for quiescent fibroblasts,[4],innocuous
same,toxicity for quiescent fibroblasts,[4]; listed as sodium 5-acetylamino-2-naphthalenesulfonate,not toxic
"O=C(O)c1ccccc1C(=O)Nc1cccc2cc(S(=O)(=O)O)ccc12.[Na] [Compound C-12, sodium 2-{[(6-sulfo-1-naphthyl)amino]carbonyl}benzoic acid]",aFGF-induced mitogenic activity inhibition (in words),aFGF [3]; Balb/c 3T3 fibroblasts,effective aFGF-induced mitogenesis activity inhibitors
same,mitogenesis inductor / tumorigenic effect on quiescent fibroblasts in the absence of aFGF,[4],high mitogenesis inductor activity
O=C(CCCCC(=O)Nc1cccc2cc(S(=O)(=O)O)ccc12)Nc1cccc2cc(S(=O)(=O)[O-])ccc12.[Na+] [Compound C-13],aFGF-induced mitogenic activity inhibition (in words),aFGF [3]; Balb/c 3T3 fibroblasts,effective aFGF-induced mitogenesis activity inhibitors
same,aFGF-induced mitogenic inhibitory activity compared between compounds (stereochemical guidelines),aFGF [3],significant reduction
same,mitogenesis inductor / tumorigenic effect on quiescent fibroblasts in the absence of aFGF,[4],high mitogenesis inductor activity
"Nc1cccc2ccc(S(=O)(=O)[O-])cc12.[Na+] [Compound C-14, sodium 8-amino-2-naphthalenesulfonate]",aFGF-induced mitogenic activity inhibition (in words),aFGF [3]; Balb/c 3T3 fibroblasts,aFGF-induced mitogenic activity inhibitors
same,toxicity for quiescent fibroblasts,[4],certain toxic effect
"CC(=O)Nc1cccc2ccc(S(=O)(=O)[O-])cc12.[Na+] [Compound C-15, sodium 8-acetylamino-2-naphthalenesulfonate]",aFGF-induced mitogenic activity inhibition (in words),aFGF [3]; Balb/c 3T3 fibroblasts,aFGF-induced mitogenic activity inhibitors
same,toxicity for quiescent fibroblasts,[4],innocuous
"O=C(Nc1cccc2ccc(S(=O)(=O)[O-])cc12)c1ccccc1.[Na+] [Compound C-16, sodium 8-benzoylamino-2-naphthalenesulfonate]",aFGF-induced mitogenic activity inhibition (in words),aFGF [3]; Balb/c 3T3 fibroblasts,aFGF-induced mitogenic activity inhibitors
same,toxicity for quiescent fibroblasts,[4],innocuous
"Nc1ccc2cc(S(=O)(=O)[O-])cc(O)c2c1.[Na+] [Compound C-17, sodium 6-amino-4-hydroxy-2-naphthalenesulfonate]",aFGF-induced mitogenic activity inhibition (in words),aFGF [3]; Balb/c 3T3 fibroblasts,slightly less than that of C-9
same,aFGF-induced mitogenic activity inhibition (in words),"aFGF [3]; Balb/c 3T3 fibroblasts, listed as sodium 4-hydroxy-6-amino-2-naphthalenesulfonate",potent aFGF-induced mitogenic activity inhibitors
same,aFGF-induced mitogenic inhibitory activity compared between compounds (stereochemical guidelines),aFGF [3],better aFGF-induced mitogenic activity inhibitors
same,toxicity for quiescent fibroblasts,[4],innocuous
same,toxicity for quiescent fibroblasts,[4]; listed as sodium 4-hydroxy-6-amino-2-naphthalenesulfonate,not toxic
"Nc1ccc(S(=O)(=O)[O-])cc1.[Na+] [Compound C-20, sodium 4-aminobenzenesulfonate]",aFGF-induced mitogenic activity inhibition (in words),aFGF [3]; Balb/c 3T3 fibroblasts,little aFGF-induced mitogenesis inhibitory activity
same,toxicity for quiescent fibroblasts,[4],innocuous
"O=S(=O)([O-])c1ccc2ncccc2c1.[Na+] [Compound C-23, sodium 6-quinolinesulfonate]",aFGF-induced mitogenic activity inhibition (in words),aFGF [3]; Balb/c 3T3 fibroblasts,potent aFGF-induced mitogenic activity inhibitor
same,toxicity for quiescent fibroblasts,[4],toxic effect
"O=S(=O)([O-])c1cccc2cccnc12.[Na+] [Compound C-24, sodium 8-quinolinesulfonate]",aFGF-induced mitogenic activity inhibition (in words),aFGF [3]; Balb/c 3T3 fibroblasts,little aFGF-induced mitogenesis inhibitory activity
same,toxicity for quiescent fibroblasts,[4],innocuous

# Reference: patent US20090076140A1, “PHARMACEUTICAL COMPOSITIONS CONTAINING SULPHONIC ACID DERIVATIVES” (ITALFARMACO, S. A., priority 2003, published 2009)
